Reference: patent US11332468B2, “Azaindole derivatives as Rho-kinase inhibitors” (CHIESI FARMACEUTICI S.p.A., priority 2017, dated 2022)

Columns and labels:
Rho kinase 1 (ROCK1) = Rho kinase 1 (ROCK1) (Homo sapiens, UniProt Q13464); assay: In vitro Rho kinase inhibitory activity assay (ADP-Glo), ROCK1; assay type: biochemical; settings: Ki by Cheng-Prusoff from IC50; 10 μM ATP; range of activity
Experimental: (§1) The effectiveness of compounds of the invention to inhibit Rho kinase activity can be determined in a […] assay containing 40 mM Tris pH7.5, 20 mM MgC2 0.1 mg/ml BSA, 50 μM DTT and 2.5 μM peptide substrate (Myelin Basic Protein) using an ADP-Glo kit (Promega). Compounds were dissolved in DMSO such that the final concentration of DMSO was 1% in the assay. All reactions/incubations are performed at 25° C. Compound (2 ul) and either Rho kinase 1 or 2 (4 μl) were mixed and incubated for 30 mins. Reactions were initiated by addition of ATP (4 μl) such that the final concentration of ATP in the assay was 10 μM. After a 1 hour incubation 10 μl of ADP-Glo Reagent was added and after a further 45 minute incubation 20 ul of Kinase Detection Buffer was added and the mixture incubated for a further 30 minutes. The luminescent signal was measured on a luminometer. […] Compounds were tested in dose-response format and the inhibition of kinase activity was calculated at each concentration of compound. To determine the IC50 (concentration of compound required to inhibit 50% of the enzyme activity) data were fit to a plot of % inhibition vs Log10 compound concentration using a sigmoidal fit with a variable slope and fixing the maximum to 100% and the minimum to 0%. To determine the Ki values the Cheng-Prusoff equation was utilized (Ki=IC50/(1+[S]/Km)

Rho kinase 2 (ROCK2) = Rho kinase 2 (ROCK2) (Homo sapiens, UniProt O75116); assay: In vitro Rho kinase inhibitory activity assay (ADP-Glo), ROCK2; assay type: biochemical; settings: Ki by Cheng-Prusoff from IC50; 10 μM ATP; range of activity
Sequence of Rho kinase 2 (ROCK2) (O75116 whole entry): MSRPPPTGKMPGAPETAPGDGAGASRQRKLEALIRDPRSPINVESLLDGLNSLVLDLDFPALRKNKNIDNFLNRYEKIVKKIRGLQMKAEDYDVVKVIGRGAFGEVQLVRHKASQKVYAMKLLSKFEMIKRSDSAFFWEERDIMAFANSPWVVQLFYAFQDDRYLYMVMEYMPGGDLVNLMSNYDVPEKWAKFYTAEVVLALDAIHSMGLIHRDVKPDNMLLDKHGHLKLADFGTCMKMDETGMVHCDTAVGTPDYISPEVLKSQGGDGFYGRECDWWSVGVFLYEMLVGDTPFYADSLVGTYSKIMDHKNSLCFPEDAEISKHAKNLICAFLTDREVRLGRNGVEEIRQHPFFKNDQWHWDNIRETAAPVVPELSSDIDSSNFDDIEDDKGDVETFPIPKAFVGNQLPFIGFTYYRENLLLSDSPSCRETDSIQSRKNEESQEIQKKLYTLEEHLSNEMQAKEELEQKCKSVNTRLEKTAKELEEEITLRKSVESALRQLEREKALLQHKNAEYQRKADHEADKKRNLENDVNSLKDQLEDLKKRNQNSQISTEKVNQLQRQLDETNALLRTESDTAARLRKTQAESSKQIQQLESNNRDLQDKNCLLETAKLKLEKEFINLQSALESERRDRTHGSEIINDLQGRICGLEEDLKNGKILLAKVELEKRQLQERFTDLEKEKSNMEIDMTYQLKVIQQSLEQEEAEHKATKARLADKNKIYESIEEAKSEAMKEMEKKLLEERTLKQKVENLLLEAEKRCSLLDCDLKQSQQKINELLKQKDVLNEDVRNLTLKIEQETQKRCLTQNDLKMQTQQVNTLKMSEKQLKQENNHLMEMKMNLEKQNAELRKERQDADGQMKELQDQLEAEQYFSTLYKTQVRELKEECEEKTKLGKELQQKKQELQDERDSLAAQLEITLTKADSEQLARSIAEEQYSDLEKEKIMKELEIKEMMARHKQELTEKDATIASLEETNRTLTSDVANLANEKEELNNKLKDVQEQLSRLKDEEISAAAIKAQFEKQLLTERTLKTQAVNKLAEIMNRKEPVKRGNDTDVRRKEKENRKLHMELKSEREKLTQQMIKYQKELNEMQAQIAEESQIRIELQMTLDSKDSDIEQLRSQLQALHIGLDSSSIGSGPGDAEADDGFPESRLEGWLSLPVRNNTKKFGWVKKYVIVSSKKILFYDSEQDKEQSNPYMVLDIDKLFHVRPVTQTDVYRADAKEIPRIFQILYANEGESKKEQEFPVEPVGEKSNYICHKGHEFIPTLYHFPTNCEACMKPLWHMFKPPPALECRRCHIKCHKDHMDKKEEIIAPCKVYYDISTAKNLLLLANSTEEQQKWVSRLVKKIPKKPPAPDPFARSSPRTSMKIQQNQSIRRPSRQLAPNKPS
Experimental: as §1

Sequence of Rho kinase 1 (ROCK1) (Q13464 whole entry): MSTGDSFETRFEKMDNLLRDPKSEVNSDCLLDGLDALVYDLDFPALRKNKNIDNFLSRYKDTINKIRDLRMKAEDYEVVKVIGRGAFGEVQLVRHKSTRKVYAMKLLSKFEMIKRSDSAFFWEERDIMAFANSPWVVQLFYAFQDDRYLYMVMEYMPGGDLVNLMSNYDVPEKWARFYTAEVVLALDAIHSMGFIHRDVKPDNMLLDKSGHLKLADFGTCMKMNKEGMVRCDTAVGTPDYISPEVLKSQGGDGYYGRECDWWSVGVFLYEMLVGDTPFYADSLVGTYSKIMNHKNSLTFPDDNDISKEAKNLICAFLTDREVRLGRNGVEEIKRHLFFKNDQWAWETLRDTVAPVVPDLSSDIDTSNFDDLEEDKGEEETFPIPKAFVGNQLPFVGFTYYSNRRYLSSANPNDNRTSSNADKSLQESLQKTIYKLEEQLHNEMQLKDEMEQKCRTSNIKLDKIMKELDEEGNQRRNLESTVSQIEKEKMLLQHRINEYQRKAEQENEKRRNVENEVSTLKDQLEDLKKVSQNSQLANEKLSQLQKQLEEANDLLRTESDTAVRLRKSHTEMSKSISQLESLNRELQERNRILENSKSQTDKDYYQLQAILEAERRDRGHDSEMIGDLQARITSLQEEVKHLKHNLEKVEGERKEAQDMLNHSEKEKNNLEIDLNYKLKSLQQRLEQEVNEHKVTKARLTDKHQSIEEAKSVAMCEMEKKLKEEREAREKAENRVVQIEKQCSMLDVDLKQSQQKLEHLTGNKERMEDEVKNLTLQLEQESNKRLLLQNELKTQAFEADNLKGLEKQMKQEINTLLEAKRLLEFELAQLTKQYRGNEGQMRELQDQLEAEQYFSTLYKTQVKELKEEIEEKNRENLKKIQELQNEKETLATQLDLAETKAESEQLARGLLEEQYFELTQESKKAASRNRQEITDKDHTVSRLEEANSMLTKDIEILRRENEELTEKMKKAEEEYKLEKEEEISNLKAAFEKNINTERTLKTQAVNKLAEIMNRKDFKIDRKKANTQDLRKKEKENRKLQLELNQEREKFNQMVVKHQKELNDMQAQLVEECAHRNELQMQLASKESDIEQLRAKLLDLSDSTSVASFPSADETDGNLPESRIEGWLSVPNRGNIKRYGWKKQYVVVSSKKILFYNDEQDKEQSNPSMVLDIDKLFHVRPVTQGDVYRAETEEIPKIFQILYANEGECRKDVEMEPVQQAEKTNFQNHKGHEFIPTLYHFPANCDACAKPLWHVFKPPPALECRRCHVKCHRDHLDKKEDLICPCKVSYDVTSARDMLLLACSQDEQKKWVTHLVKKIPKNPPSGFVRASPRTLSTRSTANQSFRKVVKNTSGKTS

Row | Ki (Rho kinase 1 (ROCK1)) [nM] | Ki (Rho kinase 2 (ROCK2)) [nM] | SMILES
1 | 5 to 50 | < 5 | Cc1c[nH]c2nccc(Oc3ccc(C4CCCN4)cc3)c12 (single isomer, unassigned) [Example 18A, 3-methyl-4-(4-(pyrrolidin-2-yl)phenoxy)-1H-pyrrolo[2,3-b]pyridine]
2 | > 50 | > 50 | Cc1c[nH]c2ncnc(Oc3ccc(CN)cc3)c12 [Example 9, (4-((5-methyl-7H-pyrrolo[2,3-d]pyrimidin-4-yl)oxy)phenyl)methanamine]
